Test results reported in PMC11845761, “Intestinal human carboxylesterase 2 (CES2) expression rescues drug metabolism and most metabolic syndrome phenotypes in global Ces2 cluster knockout mice” (Acta Pharmacologica Sinica, 2024).
Read-outs that look alike come from different tables or passages of the source. Marks after values point to notes of the source that are not given here.

Legend:
[1] = irinotecan i.v. or orally administered; Ces2^–/– vs wild-type mice; data not shown
[2] = Tissue concentrations of capecitabine and its metabolites 2 h after oral capecitabine in CES2-modified mice; assay type: in vivo, mouse; conditions: oral capecitabine 500 mg/kg; for concentration at 2 h: female, mouse, oral, 500 mg/kg
Protocol: (§1) For capecitabine 2-h experiments, 6–7 female mice received oral capecitabine (500 mg/kg, 10 μL/g), and tail vein blood samples were collected at 0.125, 0.25, 0.5 and 1 h after drug administration. For the vinorelbine 4-h experiment, 6-7 male mice received vinorelbine intravenously (10 mg/kg, 5 μL/g) or orally (10 mg/kg, 10 μL/g) using a blunt-ended needle. Tail vein blood samples were collected at 0.125, 0.25, 0.5, 1 and 2 h after drug administration. […] At the last time point in each experiment (2 or 4 h), mice were anesthetized with 5% isoflurane and blood was collected by cardiac puncture. […] Plasma was isolated from the blood by centrifugation at 9000 × g for 6 min at 4 °C, and the plasma fraction was collected and stored at −30 °C until analysis.
(§2) Concentrations of capecitabine (and its metabolites) and vinorelbine (and its metabolite) in mouse plasma samples and organ homogenates were determined using two independent validated high-performance liquid chromatography-tandem mass spectrometry assays.
(§3) Pharmacokinetic parameters were calculated by non-compartmental methods using the PK solver software. […] Differences were considered statistically significant when P < 0.05. All data are presented as mean ± SD.

[3] = Plasma pharmacokinetics of capecitabine and its metabolites after oral capecitabine in CES2-modified mice; assay type: in vivo, mouse; conditions: oral capecitabine 500 mg/kg; for AUC0-2h / AUC0-2h ratio (metabolite/capecitabine) / Cmax / Tmax / AUC(0-t): plasma; for AUC(0-t): read-out: AUC0-2h
Protocol: as §1, §2, §3

For `CCc1c2c(nc3ccc(O)cc13)-c1cc3c(c(=O)n1C2)COC(=O)[C@]3(O)CC` [SN-38], the “effect of mCes2 cluster knockout on plasma levels” value [1] was “no significant effect”.
With `C[C@H]1O[C@@H](n2cc(F)c(=O)[nH]c2=O)[C@H](O)[C@@H]1O` [5’-DFUR] the “CSI (small intestine tissue concentration)” value ([2]; female Ces2^–/– mice) was 5099 ± 1783 ng/g, the “CSIC (small intestine contents concentration)” value (“CSIC” below) ([2]; female Ces2^–/– mice) was 3905 ± 2357 ng/g and the “Ccolon (colon concentration)” value ([2]; female Ces2^–/– mice) was 4754 ± 3040 ng/g. For the same compound, the “Cliver (liver concentration)” value ([2]; female Ces2^–/– mice) was 3447 ± 1643 ng/g, the “Colon concentration ratio (metabolite/capecitabine)” value ([2]; female Ces2^–/– mice) was 0.34 ± 0.06 and the “Liver concentration ratio (metabolite/capecitabine)” value ([2]; female Ces2^–/– mice) was 0.21 ± 0.09. For the same compound, the “Small intestine concentration ratio (metabolite/capecitabine)” value ([2]; female Ces2^–/– mice) was 0.32 ± 0.13, the “Small intestine contents concentration ratio (metabolite/capecitabine)” value ([2]; female Ces2^–/– mice) was 0.036 ± 0.016 and the “CSI (small intestine tissue concentration)” value ([2]; female Ces2^–/–A mice) was 4632 ± 1545 ng/g. The “CSIC” value ([2]; female Ces2^–/–A mice) was 2689 ± 1092 ng/g, the “Ccolon (colon concentration)” value ([2]; female Ces2^–/–A mice) was 3692 ± 793 ng/g and the “Cliver (liver concentration)” value ([2]; female Ces2^–/–A mice) was 2628 ± 793 ng/g. For the same compound, the “Colon concentration ratio (metabolite/capecitabine)” value ([2]; female Ces2^–/–A mice) was 0.42 ± 0.06, the “Liver concentration ratio (metabolite/capecitabine)” value ([2]; female Ces2^–/–A mice) was 0.66 ± 0.37 and the “Small intestine concentration ratio (metabolite/capecitabine)” value ([2]; female Ces2^–/–A mice) was 0.33 ± 0.12. For the same compound, the “Small intestine contents concentration ratio (metabolite/capecitabine)” value ([2]; female Ces2^–/–A mice) was 0.035 ± 0.025, the “CSI (small intestine tissue concentration)” value ([2]; female Ces2^–/–V mice) was 3194 ± 1571 ng/g and the “CSIC” value ([2]; female Ces2^–/–V mice) was 2248 ± 905 ng/g. The “Ccolon (colon concentration)” value ([2]; female Ces2^–/–V mice) was 5426 ± 27021.6 ng/g, the “Cliver (liver concentration)” value ([2]; female Ces2^–/–V mice) was 2635 ± 1118 ng/g and the “Colon concentration ratio (metabolite/capecitabine)” value ([2]; female Ces2^–/–V mice) was 1.2 ± 0.5^###^^^. For the same compound, the “Liver concentration ratio (metabolite/capecitabine)” value ([2]; female Ces2^–/–V mice) was 0.44 ± 0.12, the “Small intestine concentration ratio (metabolite/capecitabine)” value ([2]; female Ces2^–/–V mice) was 1.50 ± 0.56^###^^^ and the “Small intestine contents concentration ratio (metabolite/capecitabine)” value ([2]; female Ces2^–/–V mice) was 0.060 ± 0.024. The “CSI (small intestine tissue concentration)” value ([2]; female wild-type mice) was 2119 ± 460 ng/g, the “CSIC” value ([2]; female wild-type mice) was 1759 ± 941 ng/g and the “Ccolon (colon concentration)” value ([2]; female wild-type mice) was 2694 ± 755 ng/g. The “Cliver (liver concentration)” value ([2]; female wild-type mice) was 1750 ± 637 ng/g, the “Colon concentration ratio (metabolite/capecitabine)” value ([2]; female wild-type mice) was 1.2 ± 0.3 and the “Liver concentration ratio (metabolite/capecitabine)” value ([2]; female wild-type mice) was 1.60 ± 0.96. For the same compound, the “Small intestine concentration ratio (metabolite/capecitabine)” value ([2]; female wild-type mice) was 1.50 ± 0.62, the “Small intestine contents concentration ratio (metabolite/capecitabine)” value ([2]; female wild-type mice) was 0.077 ± 0.032 and the AUC0-2h ([3]; female Ces2^–/– mice) was 30434 ± 12950 ng·h/mL. The “AUC0-2h ratio (metabolite/capecitabine)” value ([3]; female Ces2^–/– mice) was 1.0 ± 0.9, the Cmax ([3]; female Ces2^–/– mice) was 22886 ± 11936 ng/mL and the Tmax ([3]; female Ces2^–/– mice) was 38.4 ± 14.4 min. The AUC0-2h ([3]; female Ces2^–/–A mice) was 29452 ± 10370 ng·h/mL, the “AUC0-2h ratio (metabolite/capecitabine)” value ([3]; female Ces2^–/–A mice) was 1.1 ± 0.3 and the Cmax ([3]; female Ces2^–/–A mice) was 21100 ± 8366 ng/mL. For the same compound, the Tmax ([3]; female Ces2^–/–A mice) was 34.8 ± 12 min, the AUC0-2h ([3]; female Ces2^–/–V mice) was 34477 ± 13143 ng·h/mL and the “AUC0-2h ratio (metabolite/capecitabine)” value ([3]; female Ces2^–/–V mice) was 2.1 ± 0.4***^###^^^. The Cmax ([3]; female Ces2^–/–V mice) was 23871 ± 8673 ng/mL, the Tmax ([3]; female Ces2^–/–V mice) was 47.4 ± 16.2 min and the AUC0-2h ([3]; female wild-type mice) was 27337 ± 6291 ng·h/mL. For the same compound, the “AUC0-2h ratio (metabolite/capecitabine)” value ([3]; female wild-type mice) was 4.7 ± 0.9, the Cmax ([3]; female wild-type mice) was 21133 ± 7207 ng/mL and the Tmax ([3]; female wild-type mice) was 25.2 ± 7.8 min.
In the case of `CCCCCOC(=O)Nc1nc(=O)n([C@@H]2O[C@H](C)[C@@H](O)[C@H]2O)cc1F` [Capecitabine, reference compound], the “liver concentration, fold greater in Ces2^–/– than in wild-type mice” value ([2]; female mice) is reported as 13.8 fold, the “liver concentration, reduction in Ces2^–/–A compared with Ces2^–/– mice” value ([2]; female mice) is reported as 74.2% and the “liver concentration, reduction in Ces2^–/–V compared with Ces2^–/– mice” value ([2]; female mice) is reported as 63.5%. The “small intestine concentration, fold higher in Ces2^-/- than in wild-type mice” value ([2]; female mice) was 10.6 fold, the concentration at 2 h ([2]; Ces2^-/-, liver, female Ces2^–/– mice, read-out: Cliver (liver concentration)) was 18000 ± 8740 ng/g and the concentration at 2 h ([2]; Ces2^-/-, small intestine, female Ces2^–/– mice, read-out: CSI (small intestine tissue concentration)) was 17200 ± 6550 ng/g. It also gave a concentration at 2 h ([2]; Ces2^-/-A, liver, female Ces2^–/–A mice, read-out: Cliver (liver concentration)) of 4650 ± 1760 ng/g, a concentration at 2 h ([2]; Ces2^-/-A, small intestine tissue, female Ces2^–/–A mice, read-out: CSI (small intestine tissue concentration)) of 15200 ± 6020 ng/g and a concentration at 2 h ([2]; Ces2^-/-V, liver, female Ces2^–/–V mice, read-out: Cliver (liver concentration)) of 6570 ± 3220 ng/g. The concentration at 2 h ([2]; Ces2^-/-V, small intestine, female Ces2^–/–V mice, read-out: CSI (small intestine tissue concentration)) was 2410 ± 1190 ng/g, the concentration at 2 h ([2]; Ces2^–/– (Ces2 cluster knockout), small intestine, female Ces2^–/– mice, read-out: CSI (small intestine tissue concentration)) was 17200 ng/g and the concentration at 2 h ([2]; colon, female Ces2^–/– mice, read-out: Ccolon (colon concentration)) was 14300 ± 9020 ng/g. For the same compound, the concentration at 2 h ([2]; colon, female Ces2^–/–A mice, read-out: Ccolon (colon concentration)) was 8780 ± 1630 ng/g, the concentration at 2 h ([2]; colon, female Ces2^–/–V mice, read-out: Ccolon (colon concentration)) was 4970 ± 2980 ng/g and the concentration at 2 h ([2]; colon, female wild-type mice, read-out: Ccolon (colon concentration)) was 2250 ± 712 ng/g. For the same compound, the concentration at 2 h ([2]; liver, female wild-type mice, read-out: Cliver (liver concentration)) was 1300 ± 522 ng/g, the concentration at 2 h ([2]; small intestine contents, female Ces2^–/– mice, read-out: CSIC (small intestine contents concentration)) was 97200 ± 37200 ng/g and the concentration at 2 h ([2]; small intestine contents, female Ces2^–/–A mice, read-out: CSIC (small intestine contents concentration)) was 88500 ± 25100 ng/g. For the same compound, the concentration at 2 h ([2]; small intestine contents, female Ces2^–/–V mice, read-out: CSIC (small intestine contents concentration)) was 49700 ± 45900 ng/g, the concentration at 2 h ([2]; small intestine contents, female wild-type mice, read-out: CSIC (small intestine contents concentration)) was 26500 ± 16300 ng/g and the concentration at 2 h ([2]; small intestine tissue, female wild-type mice, read-out: CSI (small intestine tissue concentration)) was 1630 ± 865 ng/g. For the same compound, the concentration at 2 h ([2]; small intestine, female Ces2^–/–V mice, read-out: CSI (small intestine tissue concentration)) was 2410 ± 1190 ng/g, the “plasma AUC0-2h, fold greater in Ces2^–/– than in wild-type mice” value ([3]; female mice) was 5.3 fold and the “plasma AUC0-2h, lower in Ces2^–/–V than in Ces2^–/– mice” value ([3]; female mice) was 44%. It also gave an AUC(0-t) ([3]; female, Ces2^–/– (Ces2 cluster knockout), mouse, po, 500 mg/kg, female Ces2^–/– mice) of 31300 ± 16600 ng·h/mL, a Cmax ([3]; female, Ces2^–/– (Ces2 cluster knockout), mouse, po, 500 mg/kg, female Ces2^–/– mice, read-out: Cmax) of 42600 ± 17800 ng/mL and a Tmax ([3]; female, Ces2^–/– (Ces2 cluster knockout), mouse, po, 500 mg/kg, female Ces2^–/– mice, read-out: Tmax) of 12.6 ± 3.6 min. The AUC(0-t) ([3]; female, mouse, po, 500 mg/kg, female Ces2^–/–A mice) was 31500 ± 19200 ng·h/mL, the Cmax ([3]; female, mouse, po, 500 mg/kg, female Ces2^–/–A mice, read-out: Cmax) was 47000 ± 34100 ng/mL and the Tmax ([3]; female, mouse, po, 500 mg/kg, female Ces2^–/–A mice, read-out: Tmax) was 10.2 ± 4.2 min. It also gave an AUC(0-t) ([3]; female, mouse, po, 500 mg/kg, female Ces2^–/–V mice) of 17500 ± 9710 ng·h/mL, a Cmax ([3]; female, mouse, po, 500 mg/kg, female Ces2^–/–V mice, read-out: Cmax) of 23400 ± 14100 ng/mL and a Tmax ([3]; female, mouse, po, 500 mg/kg, female Ces2^–/–V mice, read-out: Tmax) of 9.6 ± 3.6 min. For the same compound, the AUC(0-t) ([3]; female, mouse, po, 500 mg/kg, female wild-type mice) was 5850 ± 1380 ng·h/mL, the Cmax ([3]; female, mouse, po, 500 mg/kg, female wild-type mice, read-out: Cmax) was 12200 ± 3800 ng/mL and the Tmax ([3]; female, mouse, po, 500 mg/kg, female wild-type mice, read-out: Tmax) was 11.4 ± 4.2 min.
